From US9981972B2, “N-hydroxy bicyclic hydantoin carbamates as tools for identification of serine hydrolase targets” (ABIDE THERAPEUTICS, INC., priority 2014, dated 2018)
Values after ≈ are worked out from the molar mass of the structure shown.

Assays:
[1] = tested on: LYPLA1/2; experiment: Inhibition by gel-based competitive ABPP in vivo (FP-Rh probe); set-up: species or system mouse
Experimental: In this assay, test compounds were administered to mice. Mice were sacrificed, and their tissues harvested, homogenized, and the soluble fractions isolated, reacted with FP-Rh, and separated by SDS-PAGE as described above.
Protocol Summary: Purpose-bred 3-4 month old male C57BL6 laboratory mice were i.p. administered test compound (0.5-50 mg/kg in 18:1:1 saline:PEG-40-castor oil:EtOH vehicle solution, 10 μL/g mouse weight) or vehicle only. After 4 hours, mice were humanely sacrificed (anesthetized with isoflurane followed by cervical dislocation), and tissues (liver, kidney, brain) removed and snap frozen in liquid nitrogen before processing. Tissues were homogenized, and soluble proteome isolated by ultracentrifugation (100 k×g, 45 minutes) and protein concentration adjusted to 1 mg/mL in DPBS. An aliquot (50 μL) was reacted with FP-Rh (2 μM final concentration) for 30 minutes at 25° C. Reactions were quenched with 16 μL 4×SDS-PAGE loading buffer (reducing), separated by SDS-PAGE, and visualized by in-gel fluorescent scanning. The percentage activity remaining was determined by measuring the integrated optical density of test compound bands relative to vehicle bands. Note: Due to the overlapping nature of LYPLA1 and LYPLA2 bands, the proteins were quantified together.
The in vivo inhibitory activity of Compound 1 was assessed. For this experiment, mice were administered test compound (0.5-50 mg/kg, i.p.) or vehicle only. After four hours mice were sacrificed and their tissues removed, homogenized, and the soluble fractions isolated and labeled with FP-Rh followed by SDS-PAGE and fluorescent detection of FP-labeled SHs (see FIG. 3B).
Compound 26, Compound 34, and Compound 1 were administered across a dose range of 1-40 mg/kg to C57BL6 mice by intraperitoneal injection, and, after 4 hours, animals were sacrificed and tissues harvested for analysis by gel-based ABPP using the FP-Rh probe and the Compound 39 probe.

[2] = Stability in PBS; assay type: physicochemical; settings: 10 μM compound, ambient temperature
Experimental: Samples were held in the HPLC autosampler at ambient temperature. At approximately 0, 1, 2, 4, 8, 24, and 48 hours the samples were injected on the HPLC. Peak area and retention time were compared between injections. Data was log transformed and represented as half-life. DMSO was added as a co-solvent as needed for solubility.

[3] = Determination of glutathione reactivity; assay type: physicochemical; settings: 10 μM compound, 50 μM glutathione, 37° C., 6 h
Experimental: Compound (10 μM) was incubated at 37° C. for 6 hours in the presence of 50 μM freshly prepared reduced glutathione. At 0 and 6 hours the samples were injected into the HPLC instrument. Peak area and retention time were compared between injections. Samples were evaluated for a glutathione dependent decrease in compound concentration. DMSO was added as a co-solvent as needed for solubility.

[4] = Solubility in PBS; assay type: physicochemical; settings: phosphate buffered saline, aqueous buffer, kinetic from dmso stock, PBS pH 7.4, 1% DMSO, 22° C.
Experimental: The solubility of compounds were tested in triplicate in phosphate buffered saline (PBS), pH 7.4. Per well, 198 μL PBS is added to a Millipore Solvinert Hydrophilic PTFE 96 well filter plate: pore size: 0.45 μm (MSRLN0450). Test compounds were introduced from 10 mM DMSO stock solutions (2 μL). The final concentration of DMSO was 1 percent. Samples were allowed to incubate at 22° C. for 18 hours. In the morning the plate was centrifuged where the soluble portion passes through the filter and was collected in a capture plate. Clotrimazole was included as a control to assure the assay was working properly. The samples were analyzed by HPLC. Peak area was compared to a standard of known concentration.

COc1ccc(N2CCN(C(=O)ON3C(=O)C4CN(CC5CCN(Cc6ccccc6)CC5)CCN4C3=O)CC2)cc1 (centres unmarked) [Compound 26, 7-((1-benzylpiperidin-4-yl)methyl)-1,3-dioxohexahydroimidazo[1,5-a]pyrazin-2(3H)-yl 4-(4-methoxyphenyl)piperazine-1-carboxylate]
mLYPLA1/2 (in vivo), % @ 40 mg/kg (testis) ([1]; 40 mg/kg, testis, mouse): 0% @

O=C(ON1C(=O)C2CN(C(=O)N3CCOCC3)CCN2C1=O)N1CCC(CCc2ccc(Cl)cc2)CC1 (centres unmarked) [Compound 1, 7-(morpholine-4-carbonyl)-1,3-dioxohexahydroimidazo[1,5-a]pyrazin-2(3H)-yl 4-(4-chloro-phenethyl)piperidine-1-carboxylate]
blockade of LYPLA1 and LYPLA2 in vivo ([1]; 5 mg/kg i.p., 4 h, FP-Rh probe): near-complete blockade of LYPLA1 and LYPLA2 in peripheral (e.g., liver, kidney), but not central (brain) tissues
mLYPLA1/2 (in vivo), % @ 5 mg/kg (liver and kidney) ([1]; 5 mg/kg, liver and kidney, mouse): 100% @
inhibition of LYPLA1/2 in liver and kidney ([1]; 0.5-50 mg/kg i.p., 4 h, liver and kidney): ~90%
inhibition of LYPLA1/2 in the brain ([1]; highest dose 50 mg/kg i.p., 4 h, brain): ~75%
half-life at 10 µM [2]: 19 h
reactivity with glutathione [3]: did not show any reactivity
solubility at 18 h [4]: 18 µM (≈ 9.61 µg/mL)
